Read-outs that look alike come from different tables or passages of the source. Marks after values point to notes of the source that are not given here.
Key:
[1] = Pharmacokinetics after single i.v. administration to rats (plasma, UHPLC-MS/MS); assay type: in vivo, Wistar rats; settings: for Cmax / Tmax / AUC(0-inf) / clearance / half-life / AUC(0-t) / Vd: male, Wistar, rat, plasma, iv; for Cmax / Tmax / AUC(0-inf) / clearance / half-life / AUC(0-t): 2 mg/kg; for AUC(0-inf): read-out: AUC (zero to infinity); for AUC(0-t): read-out: AUC0-tlast; for Vd: read-out: Vz (apparent volume of distribution); for mean plasma concentration at 6 h relative to Cmax: i.v. 2 mg·kg^−1, 6 h, DpC Group 1
Description: Male Wistar rats (230-310 g; n = 22) obtained from Velaz (Czech Republic) were kept in an air-conditioned room under a 12 h light-dark cycle, constant temperature and humidity and had free access to water and a standard laboratory pellet diet for rodents. All animal handling and procedures were approved and supervised by the Animal Welfare Body of the Faculty of Medicine in Hradec Kralove, Charles University in Prague. The investigation conformed to the Guide for the Care and Use of Laboratory Animals.
The rats were anaesthetized with pentobarbital (30 mg^.kg^−1; i.p.) and then the vena jugularis and arteria carotis were prepared for drug administration and blood sample collection, respectively. Both Dp44mT and DpC were dissolved in a mixture of saline, PEG 300 and ethanol (5:4:1, v/v/v) and administered to rats at a dose of 2 mg^.kg^−1, as a slow i.v. bolus. Blood was then collected into EDTA-containing tubes, immediately centrifuged and the plasma kept at −80°C until being analyzed. The blood withdrawn from animals was compensated with an appropriate volume of saline. The animals were sacrificed by pentobarbital overdose.
Initially, for both compounds, rats (n = 2, in each group) were used for the in-vivo investigation of the thiosemicarbazone metabolites and also the preparation of the quantitative analytical method. For the full PK study, 6 rats were used for each compound (group 1) and the blood was sampled at 4, 10, 30, 60, 120, 240 and 360 min post-administration.
Due to the markedly slower elimination of DpC, an additional in-vivo study was performed to appropriately describe the elimination phase of this drug. The conscious rats (n = 8, group 2) were administered DpC (2 mg^.kg^−1) via slow i.v. bolus to the vena saphena. Blood was sampled from the retro-orbital plexus under light ether anesthesia during the following time intervals: 120, 360, 600, 1440 and 1800 min. Plasma samples were treated and analyzed using the analytical methods described below in the Section: UHPLC-MS/MS methods for quantitative assay of the drugs and their metabolites.
Standard non-compartmental analysis was performed implementing Kinetica software (version 4.0, Thermo Fisher Scientific Inc., MA, U.S.A.). […] Maximum concentration (Cmax) and the time to maximum concentration (Tmax) were determined directly from the geometric mean vs. time profiles and from individual profiles. The area under the mean plasma concentration–time curve from zero up to the last sampling interval (AUC0-tlast) was calculated by a combination of the linear and log-linear trapezoidal methods. The area under the mean plasma concentration–time curve from zero up to infinity (AUC) was determined as the sum of the AUC0–tlast and of the extrapolated part (i.e., the ratio of the concentration predicted at the time interval of tlast and the terminal rate constant, λz). The λz was estimated by linear regression of the log transformed concentrations in the terminal part of the curve.
Population pharmacokinetic modeling was performed using non-linear, mixed effect modeling as implemented in Monolix, version 4 (http://wfn.software.monolix.org). Pharmacokinetic parameters were estimated by computing the maximum likelihood estimator of the parameters without any approximation of the model (no linearization). This was performed using the Stochastic Approximation Expectation Maximization (SAEM) algorithm combined with a Markov chain Monte Carlo procedure. The between-animal variability in model parameters were ascribed to an exponential model and a proportional model was used to describe the residual variability. The goodness-of-fit was assessed by using several diagnostic plots (observed and predicted concentrations vs. time; observed concentrations vs. population predictions; weighted residuals vs. time; and weighted residuals vs. predictions). Individual parameter values were obtained as empirical Bayes estimates. […]

[2] = tested on: H9c2 rat heart-derived myoblast cell line; assay: MTT proliferation/viability assay, H9c2; assay type: cell-based; settings: 72 h/37°C, mean ± S.D., serum- and pyruvate-free DMEM
Description: The MCF-7 human breast adenocarcinoma cell line was purchased from the European Collection of Cell Cultures (U.K.). The HL-60 human promyelocytic leukemia cell line, HCT116 human colorectal carcinoma cell line, H9c2 rat heart-derived myoblast cell line and 3T3 mouse embryo fibroblast line, were obtained from the American Type Culture Collection (VA, U.S.A.). Cells were cultured in Dulbecco's modified Eagle's medium (DMEM, Lonza, Switzerland) with or without (for MCF-7 cells only) phenol red, supplemented with 10% heat-inactivated fetal bovine serum (FBS; Lonza, Switzerland), 1% penicillin/streptomycin solution (Lonza, Switzerland) and 10 mM HEPES buffer (pH 7.0-7.6; Sigma-Aldrich, Germany). The HL-60 cell line was maintained in RPMI medium (Sigma-Aldrich, Germany) supplemented with 10% heat-inactivated FBS and 1% penicillin/streptomycin solution. All cell lines were cultured in 75 cm^2 tissue culture flasks (Switzerland) at 37°C in a humidified atmosphere of 5% CO2. Sub-confluent cells or, in the case of HL-60 cells, a cell suspension, were sub-cultured every 3-4 days.
Cells were seeded in 96-well plates for 24 h/37°C at a density of 5,000 (MCF-7), 10,000 (HL-60), 2,000 (HCT116) and 10,000 (3T3 and H9c2) cells/well. For 3T3 and H9c2 cells, the medium was changed to serum- and pyruvate-free DMEM 24 h prior to the experiments. Anti-proliferative and cytotoxicity effects of the compounds were studied at different concentrations after incubations for 72 h/37°C. Viabilities of cells were determined using MTT assays (Sigma-Aldrich, Germany) according to the manufacturer's instructions on a Tecan Infinite 200M plate reader (Tecan, Austria). The proliferation/viability of treated groups was expressed as a percentage of the untreated controls (100%).

[3] = set-up: method as in earlier work; settings: chronically repeated dosing at high non-optimal levels (Dp44mT, mice, ref 1); DpC at markedly higher doses; cited from earlier work
[4] = rats, i.v. 2 mg·kg^−1, individual values, mean ± S.D., DpC Group 1 only, read-out: Cmax (observed, individual)
[5] = rats, i.v. 2 mg·kg^−1, individual values, mean ± S.D., DpC Group 1 only, read-out: Tmax (observed, individual) (converted)
[6] = rats, i.v. 2 mg·kg^−1, non-compartmental analysis of geometric mean plasma curves, Dp4mT = metabolite after Dp44mT dosing, read-out: Cmax
[7] = rats, i.v. 2 mg·kg^−1, non-compartmental analysis, Dp4mT = metabolite after Dp44mT dosing, read-out: Tmax (converted)
[8] = rats, i.v. 2 mg·kg^−1, non-compartmental analysis
[9] = rats, i.v. 2 mg·kg^−1, non-compartmental analysis, read-out: CL (total plasma clearance) (converted)
[10] = rats, i.v. 2 mg·kg^−1, non-compartmental analysis, read-out: t1/2 (elimination half-life) (converted)
[11] = rats, i.v. 2 mg·kg^−1, two-compartment population model, Bayesian estimates, mean ± S.D.
[12] = rats, i.v. 2 mg·kg^−1, two-compartment population model, Bayesian estimates, mean ± S.D., read-out: CL (total clearance) (converted)
[13] = rats, i.v. 2 mg·kg^−1, two-compartment population model, Bayesian estimates, mean ± S.D., read-out: t1/2alpha (initial distribution half-life)
[14] = rats, i.v. 2 mg·kg^−1, two-compartment population model, Bayesian estimates, mean ± S.D., read-out: t1/2beta (elimination half-life) (converted)
[15] = rats, i.v., population analysis

Work on CN(C)C(=S)NN=C(c1ccccn1)c1ccccn1 [Dp44mT, di(2-pyridyl)ketone 4,4-dimethyl-3-thiosemicarbazone] yielded a Cmax [1, 4] of 3.78 ± 1.33 µM, a Tmax [1, 5] of 5 min and a Cmax [1, 6] of 2.55 µM. It also gave a Tmax [1, 7] of 4 min, an AUC(0-inf) [1, 8] of 1.46 µM·h and a clearance [1, 9] of 79.7 mL/min/kg. For the same molecule, the half-life [1, 10] was 132 min, the AUC(0-inf) [1, 11] was 1.66 ± 0.25 µM·h and the clearance [1, 12] was 71.8 mL/min/kg. It also gave a half-life [1, 13] of 4.3 ± 0.54 min, a half-life [1, 14] of 102 ± 18 min and an AUC(0-t) [1] of 1.34 µM·h. For the same molecule, the Vd [1, 8] was 15 L/kg, the “mean plasma concentration at 6 h relative to Cmax” value ([1]; rats) was “less than 2%” and the “lamdaz (terminal rate constant of elimination)” value [1, 8] was 0.318 h⁻¹. For the same molecule, the “mean extrapolated AUC” value [1, 8] was 8%, the total clearance ([1]; rats, i.v. 2 mg·kg^−1, range of both analyses) was 4.3-4.8 L^.h^−1.kg^−1 and the “Q (intercompartmental clearance)” value [1, 11] was 5.11 ± 0.66 L/h/kg. For the same molecule, the “Vc (volume of central compartment)” value [1, 11] was 1.02 ± 0.12 L/kg, the “Vp (volume of peripheral compartment)” value [1, 11] was 5.44 ± 1.70 L/kg and the “clearance, fold higher than DpC” value [1, 15] was 23 fold. For the same molecule, the “dose-corrected total AUC, fold lower than DpC” value [1, 15] was 28 fold, the “terminal half-life of elimination (t1/2β), fold shorter than DpC” value [1, 15] was 6.3 fold and the IC50 [2] was 124 ± 49 nM. The cardiac fibrosis [3] was “cardiac fibrosis was demonstrated”.

CN(C(=S)NN=C(c1ccccn1)c1ccccn1)C1CCCCC1 [DpC, di(2-pyridyl)ketone 4-cyclohexyl-4-methyl-3-thiosemicarbazone] showed a Cmax [1, 4] of 5.57 ± 0.89 µM, a Tmax [1, 5] of 4 min and a Cmax [1, 6] of 5.51 µM. The Tmax [1, 7] was 4 min, the AUC(0-inf) [1, 8] was 39.8 µM·h and the clearance [1, 9] was 2.37 mL/min/kg. For the same molecule, the half-life [1, 10] was 810 min, the AUC(0-inf) [1, 11] was 37.2 ± 16 µM·h and the clearance [1, 12] was 3.1 mL/min/kg. It also gave a half-life [1, 13] of 40 ± 5 min, a half-life [1, 14] of 642 ± 240 min and an AUC(0-t) [1] of 32.2 µM·h. The Vd [1, 8] was 2.77 L/kg, the “total exposure (AUC/dose), fold exceeding that of Dp44mT” value ([1]; rats, i.v.) was > 20 fold and the “mean plasma concentration at 6 h relative to Cmax” value ([1]; rats) was 21%. For the same molecule, the “lamdaz (terminal rate constant of elimination)” value [1, 8] was 0.0515 h⁻¹, the “mean extrapolated AUC” value [1, 8] was 19% and the “Q (intercompartmental clearance)” value [1, 11] was 0.50 ± 0.11^b L·h^−1·kg^−1. For the same molecule, the “Vc (volume of central compartment)” value [1, 11] was 1.05 ± 0.08 L/kg, the “Vp (volume of peripheral compartment)” value [1, 11] was 1.19 ± 0.68^a L·kg^−1 and the “dose-corrected individual Cmax, higher than Dp44mT by” value ([1]; rats, i.v., p<0.01) was 80%. For the same molecule, the IC50 [2] was 85 ± 13 nM and the cardiac fibrosis [3] was “does not induce cardiac fibrosis”.

From publication PMC4767442 (Oncotarget, 2015)
